Assay results from patent publication US6664231B1, “Anti-fungal peptides” (priority 1993, dated 2003).
Converted amounts (≈) assume the structure as drawn. “And” between values parts separate entries of the source, which are not always exact repeats. Equal values may be shown once. Read-outs that look alike come from different tables or passages of the source.

How the values were obtained:
[1] = test system: Candida parapsilosis ATCC 22019; assay: microbe, parasite or virus in culture; type: cell-based; settings: Lodderomyces parapsilosis, ATCC22019; read-out: Minimum Fungicidal Concentration, Candida parapsilosis ATCC 22019
Description: (§1) The anti-fungal activity of Domain III derived peptides was evaluated against a variety of fungal species, including species of Candida. Cryptococcus, Fusarium, Trichophyton, and Aspergillus, by an additional assay protocol utilizing Alamar Blue. Alamar Blue is an indicator dye formulated to measure quantitatively the proliferation of a variety of human or animal cells, bacteria, or fungi. It consists of an oxidation-reduction (REDOX) indicator that yields a colorimetric change in response to metabolic activity. For these experiments, species of Candida and Cryptococcus were grown in Sabouraud's dextrose broth (SDB) overnight. Strains of filamentous fungi (Aspergilius, Fusanum, Trichophyton) were obtained by irrigation of a confluent culture from a petri dish. Cells were washed and adjusted to a concentration of 5.0×10^3/mL in fresh SDB. […] Controls included amphotericin B, fluconazole, ketoconazole and griseofulvin. Antifungal drugs were also diluted in the same manner. Assays were performed in 96-well microuiter plates. […] The wells to be plated were determined by OD590 readings. The lowest concentration of peptide which maintained the blue color (or OD reading) of the blank was chosen along with the next two higher concentrations. Plates were allowed to grow for 18-48 hours depending on the rate of growth of each fungus. Minimal fungicidal activity (MFC) was determined as a 99.9% killing of the starting inoculum.

[2] = test system: Fusarium solani ATCC 36031; assay: microbe, parasite or virus in culture; type: cell-based; settings: Fusarium solani, ATCC36031; read-out: Minimum Fungicidal Concentration, Fusarium solani ATCC 36031
Description: as §1

[3] = test system: Aspergillus niger ATCC 16404; assay: microbe, parasite or virus in culture; type: cell-based; settings: Aspergillus niger, ATCC16404; read-out: Minimum Fungicidal Concentration, Aspergillus niger ATCC 16404
Description: as §1

[4] = test system: Candida glabrata ATCC 2001; assay: microbe, parasite or virus in culture; type: cell-based; settings: Nakaseomyces glabratus, ATCC2001; read-out: Minimum Fungicidal Concentration, Candida glabrata ATCC 2001
Description: as §1

[5] = test system: Candida albicans (SLU-1 and ATCC strains); assay: microbe, parasite or virus in culture; type: cell-based; settings: Candida albicans
Description: as §1

Aspergillus ATCC 13073 = assay: microbe, parasite or virus in culture; type: cell-based; settings: Aspergillus, ATCC13073; read-out: Minimum Fungicidal Concentration, Aspergillus ATCC 13073
Description: as §1

[6] = test system: Cryptococcus neoformans ATCC 13690; assay: microbe, parasite or virus in culture; type: cell-based; settings: Cryptococcus neoformans, ATCC13690; read-out: Minimum Fungicidal Concentration, Cryptococcus neoformans ATCC 13690
Description: as §1

[7] = test system: Trychophyton rubrum ATCC 28188; assay: organism not typed; type: cell-based; settings: read-out: Minimum Fungicidal Concentration, Trychophyton rubrum ATCC 28188
Description: as §1

[8] = test system: C. albicans (SLU-1 strain); assay: Survival of mice systemically infected with Candida albicans; type: in vivo, mouse; settings: 1.24×10^5 C. albicans i.v.; 3 doses i.v. (Day 0, 2, 4); 10 mg/kg XMP.36, 5 mg/kg XMP.97, 10 mg/kg XMP.102, 1 mg/kg amphotericin B; FIG. 4
Description: Groups of 15 male DBA/2J mice at age 6-8 weeks (Jackson Laboratory, Bar Harbor, Me.) were inoculated with 1.24×10^5 C. albicans (SLU-1 strain as described in Example 2) by intravenous injection into the tail vein. Cells were prepared for animal injection as follows. A single colony was selected and used to inoculate a 5 mL tube of Sabouraud dextrose broth. Incubation was at 30° C. with shaking to allow aeration for a period of 15-18 hours. Four mL of the overnight culture were added to 100 mL of fresh Sabouraud dextrose broth (1:25 dilution) and incubated for 4 hours. The 100 mL culture was pelleted at 1,500×g for 5 minutes. Cells were washed twice by adding 20 mL D-PBS, vortexing and re-centrifuging. Cells were collected in one tube and a sample is diluted 1:10 to be measured by OD570 (1 OD unit=3×10^7 CFU/mL). The cells were diluted to the desired dose in D-PBS and kept at 4° C. until used. Doses were confirmed by performing serial ten-fold dilutions and plating 50 μl per dilution on Sabouraud dextrose agar. Colonies were counted the following day after overnight incubation at 37° C. A […] culture yielded approximately 1×10^9 CFU/mL.
Immediately after fungal challenge, the mice were intravenously injected via the tail vein with a 0.1 mL volume of 10 mg/kg XMP.36, 5 mg/kg XMP.97, 10 mg/kg XMP.102, 1 mg/kg amphotericin B (Sigma, St. Louis, Mo.), or phosphate buffered saline (PBS) as a control. Treatment with the same amounts of peptides, amphotericin B or PBS was repeated at Day 2 and Day 4 (except that the second dose of XMP.36 was given at a dose of 5 mg/kg). Mice were monitored twice daily for mortality until termination of the study at Day 28. […] In FIG. 4, the symbol “X” represents survival after treatment with amphotericin B; open squares, treatment with XMP.97; open circles, treatment with XMP.36; open diamonds, treatment with XMP.102; and open triangles, treatment with buffer. Statistical significance was evaluated using the Lifetest Survival Curve analysis. [Lawless, Statistical Models and Methods for Lifetime Data, John Wiley & Sons, New York (1982).] The duration and almost linear decline in survival is analogous to human opportunistic candidiasis.
In additional 3-dose studies, groups of 15 mice were injected with a fungal challenge of 0.5×10^5 Candida cells, prepared for injection as described above, followed by treatment at Day 0, Day 2 and Day 5 with a 0.1 mL volume of 10 mg/kg XMP.127, 5 mg/kg XMP.13, 5 mg/kg XMP.37, 1 mg/kg amphotericin B, or PBS as a control. […] In FIG. 5, the symbol “X” represents survival after treatment with amphotericin B; open circles, treatment with XMP.127; filled triangles, treatment with buffer; open squares, treatment with XMP.37; open triangles, treatment with XMP.13.
Further studies to determine the effectiveness of anti-fungal peptides were performed at an increased dosing regimen (6 doses rather than 3 doses as described above). Groups of 9 week-old male DBA/2J mice were inoculated with concentrations of 2.7×10^5 Candida cells (prepared as described above) by intravenous injection in the tail vein. Immediately after fungal challenge, the mice were treated with a 0.1 mL volume of 10 mg/kg XMP.284, 1 mg/kg amphotericin B or PBS as a control at Day 0, Day 2, Day 4, Day 7, Day 9 and Day 11. All amphotericin B-treated animals were protected.
Additional 6-dose experiments were conducted as described above, using inocula of 0.5-3.0×10^5 Candida cells and using 0.01, 0.05, 0.1, 0.5, 1.0 or 5.0 mg/kg doses of peptide.

[9] = test system: polyene-resistant (ATCC 38247), 5-fluorocytosine-resistant (ATCC 44373), azole-resistant (ATCC 62342), ketoconazole-resistant (ATCC 64124) C. albicans; assay: Fungicidal activity on commercially-available drug-resistant Candida strains; type: cell-based, Candida albicans; settings: ATCC 38247, 44373, 62342, 64124
Description: Further experiments were performed to determine the anti-fungal activity of Domain III derived peptides on commercially-available strains of Candida considered resistant to other anti-fungal agents: polyene-resistant C. albicans (ATCC Accession No. 38247), 5-fluorocytosine-resistant C. albicans (ATCC No. 44373), azole-resistant C. albicans (ATCC No. 62342), and ketoconazole-resistant C. albicans (ATCC No. 64124).

[10] = test system: C. albicans (CA-1, Strain SLU-1); assay: Radial diffusion assay; type: cell-based, Candida albicans; settings: pmoles of peptide added to well to achieve a 30 mm^2 zone, PROBIT analysis; crude or purified (P′) peptide
How it was run: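 Peptides, serially diluted 2-fold in D-PBS (top ~1 mg/mL), diffused 3 h at 37° C into pH 7.4 phosphate-buffered agarose seeded with 1×10^6 CFU/mL yeast, before overnight growth under a 6% Sabouraud overlayer. Net inhibition zones measured after Coomassie staining; PROBIT fit of log pmol vs area gave pmol for 30 mm^2.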

Candida tropicalis = assay: Radial diffusion assay, Candida species (Table 2); type: cell-based
Description: (§2) The anti-fungal activity of Domain III derived peptides was also evaluated in vitro against a variety of fungal species, including Candida glabrata, Candida krusei, Candida lusitaniae, Candida parapsilosis, and Candida tropicalis. For these experiments, one colony of each of the above-listed Candida strains was picked from a Sabouraud's dextrose agar (SDA) plate and inoculated into 5 mL of Sabouraud's dextrose broth (SDB, 2% dextrose and 1% neopeptone) or, for C. krusei, Yeast Malt broth (YM, Becton Dickenson, Cockeysville, Md., cat no. BL 11405) in 12 mL polyproplyene snap-cap tubes. The tube cultures were incubated overnight with shaking at 37° C.
(§3) Cultures were harvested when the OD570 of a 1:10 dilution was greater than or equal to the following values: 0.083 for Candida glabrata, 0.154 for Candida krusei, 0.117 for Candida lusitaniae, 0.076 for Candida parapsilosis, and 0.192 for Candida tropicalis. Cells were centrifuged for 7 minutes in an Eppendorf microfuge at 3,000 rpm (about 1,500 g). The cell pellet was resuspended in 1 mL PBS and approximately 1×10^7 cells in about 0.5 mL were added to 10 mL of cooled underlay agar (3% SBD, 1% agarose, 0.02% Tween 20, 10 mM sodium phosphate buffer, pH 7.4 at about 45° C.). The suspension was poured into square petri plates, allowed to solidify, and wells cut as described above.
(§4) Peptides were two-fold serially diluted with D-PBS from about 20 μL of a starting concentration of approximately 1 mg/mL. Five μL of peptide dilution were added per well and allowed to diffuse for at least about 30 minutes into the agar at […] (to allow complete diffusion). Then 10 mL of molten overlayer agarose (6% SDB, 1% agarose, 10 mM sodium phosphate buffer, pH 7.4 at about 45° C.) were added and the plates were incubated inverted at […] overnight. Plates were stained with a dilute Coomassie solution, inhibition zones were measured with calipers and net areas were calculated, then converted to pmole values by PROBIT analysis.

Candida parapsilosis = assay: Radial diffusion assay, Candida species (Table 2); type: cell-based
Description: as §2, §3, §4

Candida glabrata = assay: Radial diffusion assay, Candida species (Table 2); type: cell-based
Description: as §2, §3, §4

Candida krusei = assay: Radial diffusion assay, Candida species (Table 2); type: cell-based
Description: as §2, §3, §4

Candida lusitaniae = assay: Radial diffusion assay, Candida species (Table 2); type: cell-based
Description: as §2, §3, §4

Candida albicans = assay: Radial diffusion assay, Candida species (Table 2); type: cell-based; settings: higher effective concentration of agarose than Table 1
[11] = ATCC10231, strain ATCC 10231, read-out: Minimum Fungicidal Concentration, Candida albicans ATCC 10231
[12] = ATCC18840, strain ATCC 18840, read-out: Minimum Fungicidal Concentration, Candida albicans ATCC 18840
[13] = ATCC26555, strain ATCC 26555, read-out: Minimum Fungicidal Concentration, Candida albicans ATCC 26555
[14] = ATCC44808, strain ATCC 44808, read-out: Minimum Fungicidal Concentration, Candida albicans ATCC 44808
[15] = ATCC90028, strain ATCC 90028, read-out: Minimum Fungicidal Concentration, Candida albicans ATCC 90028

OC(Cn1cncn1)(Cn1cncn1)c1ccc(F)cc1F [Fluconazole, fluconazole]
MFC [1]: > 10 µg/mL
MFC [2]: > 10 µg/mL
MFC [3]: > 10 µg/mL
MFC [4]: > 10 µg/mL
MFC [5, 11]: > 10 µg/mL
MFC [5, 12]: > 10 µg/mL
MFC [5, 13]: > 10 µg/mL
MFC [5, 14]: > 10 µg/mL
MFC [5, 15]: > 10 µg/mL
MFC ([5]; strain SLU-1, read-out: Minimum Fungicidal Concentration, Candida albicans SLU-1): > 10 µg/mL
MFC (Aspergillus ATCC 13073): > 50 µg/mL
MFC [6]: > 10 µg/mL
MFC [7]: > 10 µg/mL

CC(=O)N1CCN(c2ccc(OCC3COC(Cn4ccnc4)(c4ccc(Cl)cc4Cl)O3)cc2)CC1 (stereo not drawn) [Ketoconazole, ketoconazole]
MFC [1]: 5 µg/mL (≈ 9.41 µM)
MFC [2]: > 10 µg/mL
MFC [3]: > 10 µg/mL
MFC [4]: > 10 µg/mL
MFC [5, 11]: > 10 µg/mL
MFC [5, 12]: > 10 µg/mL
MFC [5, 13]: > 10 µg/mL
MFC [5, 14]: > 10 µg/mL
MFC [5, 15]: > 10 µg/mL

H-KSKVGALIQLFHKK-NH2 [XMP.36]
mice survived until Day 28 [8]: 33%
Fungicidal activity on resistant strains [9]: not reduced
C. albicans pmol/30 mm^2 zone [10]: 197 pmol/30 mm^2 zone and 231 pmol/30 mm^2 zone

H-KSKVGVLIQLFHKK-NH2 [XMP.166]
Fungicidal activity on resistant strains [9]: not reduced
Anti-fungal activity: pmol/30 mm^2 zone, Candida tropicalis (Candida tropicalis): 864 pmol/30 mm^2 zone
Anti-fungal activity: pmol/30 mm^2 zone, Candida parapsilosis (Candida parapsilosis): 1,199 pmol/30 mm^2 zone
Anti-fungal activity: pmol/30 mm^2 zone, Candida glabrata (Candida glabrata): 2,100 pmol/30 mm^2 zone
Anti-fungal activity: pmol/30 mm^2 zone, Candida krusei (Candida krusei): 3,240 pmol/30 mm^2 zone
Anti-fungal activity: pmol/30 mm^2 zone, Candida lusitaniae (Candida lusitaniae): 1,133 pmol/30 mm^2 zone
C. albicans pmol/30 mm^2 zone [10]: 171 pmol/30 mm^2 zone
Anti-fungal activity: pmol/30 mm^2 zone, Candida albicans (Candida albicans): >3,079 pmol/30 mm^2 zone
